# Experimental data: PubChem BioAssay AID2060907 (Molecular Pharmacology Branch, DTP, NCI, 2025)
# System: 388556-164-R-J1-PDC complex spheroid viability
# Assay: Anticancer human tumor 388556-164-R-J1-PDC patient-derived colon adenocarcinoma cell line growth inhibition [RAS]
# Conditions: for viability, T/C: stronger effect = lower value
# How it was run: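 Multi-cell-type spheroids: tumor cells plus HUVEC endothelial cells and mesenchymal stem cells. RAS-pathway inhibitors were combined with targeted agents, each dosed in half-log steps down from clinical Cmax, or from 10 microM when Cmax was unknown.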
# [1] = curve of first compound, second compound 0.000949 µM
# [2] = curve of first compound, second compound 0.003 µM
# [3] = curve of first compound, second compound 0.00949 µM
# [4] = curve of first compound, second compound 0.03 µM
# [5] = curve of first compound, second compound 0.0949 µM
# [6] = curve of first compound, second compound 0.3 µM
# [7] = second compound 0.000949 µM, first compound 0.00316 µM
# [8] = second compound 0.000949 µM, first compound 0.01 µM
# [9] = second compound 0.000949 µM, first compound 0.0316 µM
# [10] = second compound 0.000949 µM, first compound 0.1 µM
# [11] = second compound 0.000949 µM, first compound 0.316 µM
# [12] = second compound 0.000949 µM, first compound 1 µM
# [13] = second compound 0.003 µM, first compound 0.00316 µM
# [14] = second compound 0.003 µM, first compound 0.01 µM
# [15] = second compound 0.003 µM, first compound 0.0316 µM
# [16] = second compound 0.003 µM, first compound 0.1 µM
# [17] = second compound 0.003 µM, first compound 0.316 µM
# [18] = second compound 0.003 µM, first compound 1 µM
# [19] = second compound 0.00949 µM, first compound 0.00316 µM
# [20] = second compound 0.00949 µM, first compound 0.01 µM
# [21] = second compound 0.00949 µM, first compound 0.0316 µM
# [22] = second compound 0.00949 µM, first compound 0.1 µM
# [23] = second compound 0.00949 µM, first compound 0.316 µM
# [24] = second compound 0.00949 µM, first compound 1 µM
# [25] = second compound 0.03 µM, first compound 0.00316 µM
# [26] = second compound 0.03 µM, first compound 0.01 µM
# [27] = second compound 0.03 µM, first compound 0.0316 µM
# [28] = second compound 0.03 µM, first compound 0.1 µM
# [29] = second compound 0.03 µM, first compound 0.316 µM
# [30] = second compound 0.03 µM, first compound 1 µM
# [31] = second compound 0.0949 µM, first compound 0.00316 µM
# [32] = second compound 0.0949 µM, first compound 0.01 µM
# [33] = second compound 0.0949 µM, first compound 0.0316 µM
# [34] = second compound 0.0949 µM, first compound 0.1 µM
# [35] = second compound 0.0949 µM, first compound 0.316 µM
# [36] = second compound 0.0949 µM, first compound 1 µM
# [37] = second compound 0.3 µM, first compound 0.00316 µM
# [38] = second compound 0.3 µM, first compound 0.01 µM
# [39] = second compound 0.3 µM, first compound 0.0316 µM
# [40] = second compound 0.3 µM, first compound 0.1 µM
# [41] = second compound 0.3 µM, first compound 0.316 µM
# [42] = second compound 0.3 µM, first compound 1 µM
# 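Further: spheroids exposed to compound for 7 days before readout.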
# 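Wherever viability, T/C is given: 100% = DMSO vehicle control luminescence.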
smiles,measurement,setting,value
CCN1CCN(Cc2ccc(Nc3ncc(F)c(-c4cc(F)c5nc(C)n(C(C)C)c5c4)n3)nc2)CC1 + CCn1c(-c2cc(N3CCN(C)CC3)cnc2C(C)OC)c2c3cc(ccc31)-c1csc(n1)CC(NC(=O)C1CC1C)C(=O)N1CCCC(N1)C(=O)OCC(C)(C)C2,IC50,[1],> 1000 nM
same,IC50,[2],> 1000 nM
same,IC50,[3],879 nM
same,IC50,[4],219 nM
same,IC50,[5],< 3.16 nM
same,IC50,[6],< 3.16 nM
same,"viability, T/C",[7],97.5%
same,"viability, T/C",[8],92.2%
same,"viability, T/C",[9],93.1%
same,"viability, T/C",[10],79.4%
same,"viability, T/C",[11],75%
same,"viability, T/C",[12],75.2%
same,"viability, T/C",[13],96%
same,"viability, T/C",[14],96.8%
same,"viability, T/C",[15],76.6%
same,"viability, T/C",[16],71.3%
same,"viability, T/C",[17],66.2%
same,"viability, T/C",[18],58.7%
same,"viability, T/C",[19],79.8%
same,"viability, T/C",[20],78.6%
same,"viability, T/C",[21],68.5%
same,"viability, T/C",[22],58.1%
same,"viability, T/C",[23],62.7%
same,"viability, T/C",[24],46.8%
same,"viability, T/C",[25],59%
same,"viability, T/C",[26],64.4%
same,"viability, T/C",[27],65.9%
same,"viability, T/C",[28],57.9%
same,"viability, T/C",[29],46.2%
same,"viability, T/C",[30],38.7%
same,"viability, T/C",[31],45.9%
same,"viability, T/C",[32],41.2%
same,"viability, T/C",[33],35.4%
same,"viability, T/C",[34],30.8%
same,"viability, T/C",[35],34%
same,"viability, T/C",[36],31.4%
same,"viability, T/C",[37],33.2%
same,"viability, T/C",[38],32.3%
same,"viability, T/C",[39],31.9%
same,"viability, T/C",[40],30.8%
same,"viability, T/C",[41],29.5%
same,"viability, T/C",[42],31.5%
CC(Nc1ccc2c(c1)OCCn1cc(N3C(=O)OCC3C(F)F)nc1-2)C(N)=O (configuration not stated),"viability, T/C",compound 0.1 µM,87.7% [middle of 4 runs]
same,"viability, T/C",compound 0.316 µM,88.6% [middle of 4 runs]
same,"viability, T/C",compound 1 µM,80.3% [middle of 4 runs]
same,"viability, T/C",compound 3.16 µM,74.9% [middle of 4 runs]
same,"viability, T/C",compound 10 µM,67.4% [middle of 4 runs]
same,IC50,curve of compound,> 10000 nM
Cc1nc(N2CCC3(CC2)COC(C)C3N)c(CO)nc1Sc1ccnc(N)c1Cl (configuration not stated) + CCn1c(-c2cc(N3CCN(C)CC3)cnc2C(C)OC)c2c3cc(ccc31)-c1csc(n1)CC(NC(=O)C1CC1C)C(=O)N1CCCC(N1)C(=O)OCC(C)(C)C2,IC50,[1],774 nM
same,IC50,[2],694 nM
same,IC50,[3],233 nM
same,IC50,[4],67.6 nM
same,IC50,[5],< 31.6 nM
same,IC50,[6],< 31.6 nM
same,"viability, T/C",[9],84.3%
same,"viability, T/C",[10],83.6%
same,"viability, T/C",[11],60.2%
same,"viability, T/C",[12],47.5%
same,"viability, T/C","second compound 0.000949 µM, first compound 3.16 µM",43.1%
same,"viability, T/C","second compound 0.000949 µM, first compound 10 µM",34.3%
same,"viability, T/C",[15],81.2%
same,"viability, T/C",[16],70.3%
same,"viability, T/C",[17],57.7%
same,"viability, T/C",[18],45.8%
same,"viability, T/C","second compound 0.003 µM, first compound 3.16 µM",39.2%
same,"viability, T/C","second compound 0.003 µM, first compound 10 µM",32.8%
same,"viability, T/C",[21],68.7%
same,"viability, T/C",[22],53.4%
same,"viability, T/C",[23],52.5%
same,"viability, T/C",[24],36.6%
same,"viability, T/C","second compound 0.00949 µM, first compound 3.16 µM",35.1%
same,"viability, T/C","second compound 0.00949 µM, first compound 10 µM",29.7%
same,"viability, T/C",[27],56.7%
same,"viability, T/C",[28],45.6%
same,"viability, T/C",[29],39.2%
same,"viability, T/C",[30],33.4%
same,"viability, T/C","second compound 0.03 µM, first compound 3.16 µM",29.9%
same,"viability, T/C","second compound 0.03 µM, first compound 10 µM",23.5%
same,"viability, T/C",[33],40.6%
same,"viability, T/C",[34],37.2%
same,"viability, T/C",[35],30.9%
same,"viability, T/C",[36],26.3%
same,"viability, T/C","second compound 0.0949 µM, first compound 3.16 µM",25.9%
same,"viability, T/C","second compound 0.0949 µM, first compound 10 µM",22.8%
same,"viability, T/C",[39],28.8%
same,"viability, T/C",[40],30.6%
same,"viability, T/C",[41],25.4%
same,"viability, T/C",[42],25.7%
same,"viability, T/C","second compound 0.3 µM, first compound 3.16 µM",24%
same,"viability, T/C","second compound 0.3 µM, first compound 10 µM",20%
O=C(c1ccc(F)c(F)c1Nc1ccc(I)cc1F)N1CC(O)([C@@H]2CCCCN2)C1 + CCn1c(-c2cc(N3CCN(C)CC3)cnc2C(C)OC)c2c3cc(ccc31)-c1csc(n1)CC(NC(=O)C1CC1C)C(=O)N1CCCC(N1)C(=O)OCC(C)(C)C2,IC50,[1],132 nM
same,IC50,[2],84.5 nM
same,IC50,[3],36.1 nM
same,IC50,[4],8.39 nM
same,IC50,[5],< 3.16 nM
same,IC50,[6],< 3.16 nM
same,"viability, T/C",[7],96%
same,"viability, T/C",[8],91%
same,"viability, T/C",[9],72.6%
same,"viability, T/C",[10],58.3%
same,"viability, T/C",[11],31.8%
same,"viability, T/C",[12],19.9%
same,"viability, T/C",[13],97.5%
same,"viability, T/C",[14],83.3%
same,"viability, T/C",[15],70.5%
same,"viability, T/C",[16],46%
same,"viability, T/C",[17],29.1%
same,"viability, T/C",[18],19.3%
same,"viability, T/C",[19],80.9%
same,"viability, T/C",[20],69.2%
same,"viability, T/C",[21],50.1%
same,"viability, T/C",[22],38%
same,"viability, T/C",[23],24.1%
same,"viability, T/C",[24],18.7%
same,"viability, T/C",[25],63.6%
same,"viability, T/C",[26],45.8%
same,"viability, T/C",[27],36.9%
same,"viability, T/C",[28],30.1%
same,"viability, T/C",[29],19.7%
same,"viability, T/C",[30],18.6%
same,"viability, T/C",[31],35%
same,"viability, T/C",[32],33.2%
same,"viability, T/C",[33],30.3%
same,"viability, T/C",[34],18.4%
same,"viability, T/C",[35],17.9%
same,"viability, T/C",[36],18.8%
same,"viability, T/C",[37],28.3%
same,"viability, T/C",[38],26.1%
same,"viability, T/C",[39],20.1%
same,"viability, T/C",[40],16.9%
same,"viability, T/C",[41],18.4%
same,"viability, T/C",[42],17%
